Laboratory results published in US7572444B2, “Binding proteins specific for human matriptase” (Amgen Fremont Inc., priority 2004, dated 2009).

Key:
[1] = system: unknown protease present in the B cell culture supernatant; test: QAR-MCA cleavage by unknown protease of B cell culture supernatant; format: biochemical; details: QAR-MCA substrate
Description: (§1) The development of the assay method was complicated by the finding that an unknown protease was present in the B cell culture supernatant that was able to cleave the QAR-MCA substrate. […] This was advantageous as the background cleavage would no longer affect the ability to identify neutralizing antibodies against Matriptase. The supernatant also contained an unknown Matriptase inhibitor that necessitated a relatively high Matriptase concentration in the assay.

[2] = target: T1, catalytic domain of Matriptase (Homo sapiens, UniProt Q9Y5Y6); test: Enzymatic assay with tripeptide QAR-MCA substrate (Tripeptide-MCA assay); format: biochemical; details: at the concentration that inhibits the unknown protease
T1 sequence (Q9Y5Y6 615-855): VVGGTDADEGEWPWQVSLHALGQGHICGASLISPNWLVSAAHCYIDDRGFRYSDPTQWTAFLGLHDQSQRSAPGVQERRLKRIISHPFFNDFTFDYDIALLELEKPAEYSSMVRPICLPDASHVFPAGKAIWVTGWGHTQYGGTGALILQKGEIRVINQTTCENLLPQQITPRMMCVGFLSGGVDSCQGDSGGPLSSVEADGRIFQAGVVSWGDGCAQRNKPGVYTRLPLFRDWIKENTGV
Protocol: All 972 wells were then analyzed in an enzymatic assay using the catalytic domain of Matriptase and the tripeptide QAR-MCA (Peptides International Inc., Louisville, Ky.) as substrate. The cleavage of the QAR-MCA substrate by Matriptase causes the release of a methylcoumarin amide group (MCA) as amino-methyl coumarin (AMC). The free AMC can then be detected using a fluorescent reader as a measure of Matriptase activity.
as §1
The wells were determined to be positive based on their ability to inhibit Matriptase activity in two assays compared with average of the irrelevant control wells (enzyme, substrate and B cell culture supernatant) shown below. The data is shown as a percentage of the average of the negative control wells (enzyme and substrate) as in Table 3.

[3] = system: Raji cells; test: ADCC assay; format: cell-based, human; details: 0.0001 to 1 μg/ml, NK effector cells, 4 hours
Protocol: Raji cells were used as target cells for the ADCC assay. To prepare the target cells, Raji cells were harvested and resuspended in media at 1.0×10^6 cells/ml. Calcein (Sigma C1359) was then added to a final concentration of 10 μM, and the cells were incubated for 45-60 minutes at 37° C., after which the Raji cells were pelleted by centrifugation at 1200 rpm for 10 minutes. The supernatant was discarded and the cells were resuspended in growth media. The centrifugation step was repeated, the cells were resuspended at a concentration of 1.0×10^4 cells in 75μL media and were then plated at 1.0×10^4 cells per well in a round bottom plate. […] The cells and antibody were incubated for 30 minutes at room temperature.
The effector cells for the ADCC assay were prepared as follows. […] The cells were counted to determine the concentration of natural killer (NK) cells, diluted to a concentration of 9.0×10^4 cells per 75 μL, and then 75 μL of these cells were then added to the Raji cells from the step above and then incubated for 4 hours at 37° C. The plate was then centrifuged at 1200 rpm for 5 minutes, and 100 μL of the supernatant was transferred to a flat, black clear-bottom 96 well plate and subsequently read on a Victor plate reader using a 490 nm excitation and 530 nm emission wavelength.

[4] = system: Ramos tumor-bearing SCID mice; test: Ramos hind-limb paralysis model; format: in vivo; details: 5 mg/kg, d1, i.p., 1×10^6 Ramos cells i.v.
Protocol: The ability of sc95/96 to modulate the invasive and/or metastatic properties of Ramos cells was evaluated in a rodent hind-limb paralysis model. Without therapeutic intervention, SCID mice inoculated systemically with Ramos B lymphoma cells develop hind limb paralysis at ˜25 days post injection, presumably related to the accumulation of tumor cells in the spinal cord and/or brain tissues (dijoseph et al., 2004, Clinical Cancer Research 10: 8620-8629).
In this experiment, 7-8 week old C.B-17 SCID male mice were inoculated with 1×10^6 Ramos cells via tail vein injection. […] Groups 1-3 thereafter received weekly 25 mg/kg injections of antibody or an equivalent volume of PBS. Animals were given food and water ad libidum and monitored daily for signs of paralysis. Individual mice were euthanized when unable to move due to hind limb paralysis.

[5] = system: Ramos cells; test: CDC assay; format: cell-based; details: 10, 5, 2.5 and 1.25 μg/mL, 25% human sera, 1 hour; sc95/96 as IgG1 or IgG2
Protocol: In this experiment, 100,000 Ramos cells in 25 μL of media were added to the bottom of a 96-well plate. […] Each sample point was run in quadruplicate. After 10 minutes at room temperature, 50 μL of 50% human sera (25% final concentration) was added to the cells and incubated at 37 degrees Celsius for 1 hour. CellTiterGlo reagent (100 μL) was added to each well and allowed to incubate on the cells for 10 minutes.

Row | Compound | inhibition of activity of the unknown protease [1] | effect on activity of Matriptase [2] | Raji cell lysis by ADCC [3] | Median survival time [4] | CDC on Ramos cells [5]
1 | O=S(=O)(F)Cc1ccccc1 [PMSF, phenylmethyl sulfonyl fluoride] | completely inhibit | without affecting the activity of Matriptase |  |  | 
2 | Rituximab [reference compound] |  |  | induce Raji cell lysis by ADCC | greater than 45 days | did demonstrate CDC activity
